Data: article PMC3570588 (ChemMedChem, 2012)
Converted amounts (≈) assume the structure as drawn.

How the values were obtained:
[1] = molecular target: B. anthracis DHFR (Bacillus anthracis, UniProt Q81R22); assay type: biochemical; conditions: read-out: Ki, nM (SEM) B. anthracis Sterne; pH 7.0, 30 °C
[2] = system: B. anthracis Sterne; assay type: cell-based, Bacillus anthracis
[3] = molecular target: S. aureus DHFR (Staphylococcus aureus, UniProt P0A017); assay type: biochemical; conditions: read-out: Ki, nM (SEM) S. aureus 29213; pH 7.0, 30 °C
Sequence of S. aureus DHFR (P0A017 whole entry): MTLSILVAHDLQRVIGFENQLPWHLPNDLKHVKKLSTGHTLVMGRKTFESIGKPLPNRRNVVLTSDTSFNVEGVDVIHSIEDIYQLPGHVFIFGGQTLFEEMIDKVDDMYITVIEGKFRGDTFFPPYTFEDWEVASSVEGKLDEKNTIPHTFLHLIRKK

[4] = system: S. aureus 29213; assay type: cell-based, Staphylococcus aureus

Sequence of B. anthracis DHFR (Q81R22 1-162): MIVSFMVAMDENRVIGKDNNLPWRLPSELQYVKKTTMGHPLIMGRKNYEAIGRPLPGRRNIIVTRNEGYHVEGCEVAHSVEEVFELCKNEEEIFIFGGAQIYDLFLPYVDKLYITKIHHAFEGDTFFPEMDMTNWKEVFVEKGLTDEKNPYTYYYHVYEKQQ

SMILES	Ki [1] [nM]	MIC, μg/mL B. anthracis Sterne [2] [µg/mL]	Ki [3] [nM]	MIC, μg/mL S. aureus 29213 [4] [µg/mL]
CCCC1c2ccccc2C=NN1C(=O)/C=C/c1cc(Cc2c(C)nc(N)nc2N)cc(OC)c1OC (racemic) [Compound 11a, (±)-(E)-3-{5-[(2,4-Diamino-6-methyl-5-pyrimidinyl)methyl]-2,3-dimethoxyphenyl}-1-(1-propyl-2(1H)-phthalazinyl)-2-propen-1-one]	72.4	8 (≈ 16 µM)	4.5	0.5 (≈ 0.999 µM)
CCCC1c2ccccc2C=NN1C(=O)/C=C/c1cc(Cc2c(N)nc(N)nc2CC)cc(OC)c1OC (racemic) [Compound 11b, (±)-(E)-3-5-[(2,4-Diamino-6-ethyl-5-pyrimidinyl)methyl]-2,3-dimethoxyphenyl}-1-(1-propyl-2(1H)-phthalazinyl)-2-propen-1-one]	–	4 (≈ 7.77 µM)	3.6	0.5 to 2
CCCc1nc(N)nc(N)c1Cc1cc(/C=C/C(=O)N2N=Cc3ccccc3C2CCC)c(OC)c(OC)c1 (racemic) [Compound 11c, (±)-(E)-3-5-[(2,4-Diamino-6-propyl-5-pyrimidinyl)methyl]-2,3-dimethoxyphenyl}-1-(1-propyl-2(1H)-phthalazinyl)-2-propen-1-one]	–	1 (≈ 1.89 µM)	4	1 to 2
COc1cc(Cc2c(C)nc(N)nc2N)cc(/C=C/C(=O)N2N=Cc3ccccc3C2C=C(C)C)c1OC (racemic) [Compound 12a, (±)-(E)-3-{5-[(2,4-Diamino-6-methyl-5-pyrimidinyl)methyl]-2,3-dimethoxyphenyl}-1-(1-isobutenyl-2(1H)-phthalazinyl)-2-propen-1-one]	14.3	4 (≈ 7.8 µM)	3.4	0.25 to 0.5
CCc1nc(N)nc(N)c1Cc1cc(/C=C/C(=O)N2N=Cc3ccccc3C2C=C(C)C)c(OC)c(OC)c1 (racemic) [Compound 12b, (±)-(E)-3-{5-[(2,4-Diamino-6-ethyl-5-pyrimidinyl)methyl]-2,3-dimethoxyphenyl}-1-(1-isobutenyl-2(1H)-phthalazinyl)-2-propen-1-one]	25.4	4 (≈ 7.6 µM)	2.9	0.25 to 0.5
CCCc1nc(N)nc(N)c1Cc1cc(/C=C/C(=O)N2N=Cc3ccccc3C2C=C(C)C)c(OC)c(OC)c1 (racemic) [Compound 12c, (±)-(E)-3-{5-[(2,4-Diamino-6-propyl-5-pyrimidinyl)methyl]-2,3-dimethoxyphenyl}-1-(1-isobutenyl-2(1H)-phthalazinyl)-2-propen-1-one]	–	2 (≈ 3.7 µM)	4.1	2 (≈ 3.7 µM)
